Molecular target: T1, Human SST5 somatostatin receptor (Homo sapiens, UniProt P35346)
T1 construct: expressed in transfected cells; host or cells: HEK-293 EBNA cells (membranes)
Assay: Filter plate radio-ligand binding assay for SST5 receptor ([125I]SST-14 displacement)
Settings: for % SST5 radio-ligand binding displaced at conc 0.25: conc 0.25 μM; for % SST5 radio-ligand binding displaced at conc 1.0: conc 1.0 μM; for % SST5 radio-ligand binding displaced at conc 10: conc 10 μM; for % SST5 radio-ligand binding displaced at conc 0.5: conc 0.5 μM

[1] = compound conc 50 μM, 2P library
[2] = compound conc 250 μM, 2P library
[3] = compound conc 500 μM, 2P library

T1 sequence (P35346 whole entry): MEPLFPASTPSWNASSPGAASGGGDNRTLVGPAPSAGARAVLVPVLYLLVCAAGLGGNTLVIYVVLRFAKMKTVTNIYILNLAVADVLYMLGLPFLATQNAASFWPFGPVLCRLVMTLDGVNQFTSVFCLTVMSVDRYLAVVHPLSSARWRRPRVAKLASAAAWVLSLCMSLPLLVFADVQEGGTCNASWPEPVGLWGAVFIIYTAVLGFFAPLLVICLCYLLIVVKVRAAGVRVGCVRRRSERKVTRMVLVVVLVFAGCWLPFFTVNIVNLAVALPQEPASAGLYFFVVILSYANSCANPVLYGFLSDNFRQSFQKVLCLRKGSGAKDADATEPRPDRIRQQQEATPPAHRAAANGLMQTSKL

COC[C@H]1OC(OCc2ccc3ccccc3c2)[C@H](NC(=O)CCN)[C@@H](OCc2ccccc2)[C@@H]1O (single isomer, unassigned) [Compound 88]
% SST5 radio-ligand binding displaced at conc 0.25 (3P library): − (% SST5 radio-ligand binding displaced at cone (μM) −<40%)
% SST5 radio-ligand binding displaced at conc 1.0 (3P library): − (% SST5 radio-ligand binding displaced at cone (μM) −<40%)

COC[C@H]1O[C@@H](OCc2ccc(Cl)cc2)[C@H](NC(=O)CN)[C@@H](OC)[C@@H]1O [Compound 157]
% SST5 radio-ligand binding displaced at conc 50 (conc 50 μM, 3P library): − (% SST5 radio-ligand binding displaced at cone (μM) −<40%)
% SST5 radio-ligand binding displaced at conc 250 (conc 250 μM, 3P library): − (% SST5 radio-ligand binding displaced at cone (μM) −<40%)
% SST5 radio-ligand binding displaced at conc 500 (conc 500 μM, 3P library): − (% SST5 radio-ligand binding displaced at cone (μM) −<40%)

COCC1OC(OCc2ccc3ccccc3c2)C(NC(=O)CCCN)C(OCc2ccc3ccccc3c2)C1O (mixture of isomers) [Compound 132]
% SST5 radio-ligand binding displaced at conc 10 (3P library): ++ (% SST5 radio-ligand binding displaced at conc (μM) >60%)

CNCCCC(=O)N[C@H]1[C@@H](OCc2ccc3ccccc3c2)O[C@H](COC)[C@@H](O)[C@@H]1OCc1ccc2ccccc2c1 [Compound 139]
% SST5 radio-ligand binding displaced at conc 0.25 (3P library): − (% SST5 radio-ligand binding displaced at cone (μM) −<40%)
% SST5 radio-ligand binding displaced at conc 1.0 (3P library): + (% SST5 radio-ligand binding displaced at cone (μM) 60>+>40%)

COC[C@H]1O[C@H](OCc2ccc(Cl)cc2)[C@H](NC(=O)CN)[C@H](OC)[C@@H]1O [Compound 33]
% SST5 radio-ligand binding displaced at conc 50 [1]: − (% SST5 radio-ligand binding displaced at cone (μM) −<40%)
% SST5 radio-ligand binding displaced at conc 250 [2]: − (% SST5 radio-ligand binding displaced at cone (μM) −<40%)
% SST5 radio-ligand binding displaced at conc 500 [3]: − (% SST5 radio-ligand binding displaced at cone (μM) −<40%)

COC[C@H]1O[C@H](OCc2ccc3ccccc3c2)[C@H](NC(=O)CCCN)[C@@H](OCc2cccc3cccnc23)[C@@H]1O [Compound 147]
% SST5 radio-ligand binding displaced at conc 0.25 (3P library): + (% SST5 radio-ligand binding displaced at cone (μM) 60>+>40%)
% SST5 radio-ligand binding displaced at conc 1.0 (3P library): ++ (% SST5 radio-ligand binding displaced at conc (μM) >60%)

COCC1OC(OCc2ccc(Cl)cc2)C(NC(=O)CN)C(OCc2ccc(-c3ccccc3)cc2)C1O (mixture of isomers) [Compound 173]
% SST5 radio-ligand binding displaced at conc 0.25 (3P library): − (% SST5 radio-ligand binding displaced at cone (μM) −<40%)
% SST5 radio-ligand binding displaced at conc 1.0 (3P library): − (% SST5 radio-ligand binding displaced at cone (μM) −<40%)

COC[C@H]1O[C@H](OCc2ccc3ccccc3c2)[C@H](NC(=O)CCCN)[C@@H](OCc2ccc3ccccc3n2)[C@@H]1O [Compound 153]
% SST5 radio-ligand binding displaced at conc 0.25 (3P library): ++ (% SST5 radio-ligand binding displaced at conc (μM) >60%)
% SST5 radio-ligand binding displaced at conc 1.0 (3P library): ++ (% SST5 radio-ligand binding displaced at conc (μM) >60%)

COC1C(O)C(COCc2ccc(Cl)cc2)OC(OCc2ccc(Cl)cc2)C1NC(=O)CN (mixture of isomers) [Compound 177]
% SST5 radio-ligand binding displaced at conc 0.25 (3P library): − (% SST5 radio-ligand binding displaced at cone (μM) −<40%)
% SST5 radio-ligand binding displaced at conc 1.0 (3P library): − (% SST5 radio-ligand binding displaced at cone (μM) −<40%)

CO[C@H]1[C@H](O)[C@@H](COCc2ccc3ccccc3c2)O[C@@H](SC)[C@@H]1NC(=O)CCCN [Compound 23]
% SST5 radio-ligand binding displaced at conc 50 [1]: − (% SST5 radio-ligand binding displaced at cone (μM) −<40%)
% SST5 radio-ligand binding displaced at conc 250 [2]: − (% SST5 radio-ligand binding displaced at cone (μM) −<40%)
% SST5 radio-ligand binding displaced at conc 500 [3]: + (% SST5 radio-ligand binding displaced at cone (μM) 60>+>40%)

COC[C@H]1O[C@@H](SC)[C@H](NC(=O)CN)[C@@H](OCc2ccc3ccccc3c2)[C@@H]1O [Compound 10]
% SST5 radio-ligand binding displaced at conc 50 [1]: − (% SST5 radio-ligand binding displaced at cone (μM) −<40%)
% SST5 radio-ligand binding displaced at conc 250 [2]: − (% SST5 radio-ligand binding displaced at cone (μM) −<40%)
% SST5 radio-ligand binding displaced at conc 500 [3]: − (% SST5 radio-ligand binding displaced at cone (μM) −<40%)

COC[C@H]1O[C@@H](OCc2ccc3ccccc3c2)[C@H](NC(=O)CN)[C@H](OC)[C@@H]1O [Compound 36]
% SST5 radio-ligand binding displaced at conc 50 [1]: − (% SST5 radio-ligand binding displaced at cone (μM) −<40%)
% SST5 radio-ligand binding displaced at conc 250 [2]: − (% SST5 radio-ligand binding displaced at cone (μM) −<40%)
% SST5 radio-ligand binding displaced at conc 500 [3]: + (% SST5 radio-ligand binding displaced at cone (μM) 60>+>40%)

COC[C@H]1O[C@H](OCc2ccc3ccccc3c2)[C@H](NC(=O)CCN)[C@@H](OCc2ccc(Cl)c(Cl)c2)[C@@H]1O [Compound 113]
% SST5 radio-ligand binding displaced at conc 0.25 (3P library): ++ (% SST5 radio-ligand binding displaced at conc (μM) >60%)
% SST5 radio-ligand binding displaced at conc 1.0 (3P library): ++ (% SST5 radio-ligand binding displaced at conc (μM) >60%)

COC[C@H]1O[C@H](OCc2ccc3ccccc3c2)[C@H](NC(=O)C2CCCNC2)[C@@H](OCc2ccc3ccccc3c2)[C@@H]1O (some centres unmarked) [Compound 103]
% SST5 radio-ligand binding displaced at conc 0.25 (3P library): + (% SST5 radio-ligand binding displaced at cone (μM) 60>+>40%)
% SST5 radio-ligand binding displaced at conc 1.0 (3P library): ++ (% SST5 radio-ligand binding displaced at conc (μM) >60%)

COC[C@H]1O[C@H](OCc2ccc3ccccc3c2)[C@H](NC(=O)CCCN2CCCC2)[C@@H](OCc2ccc3ccccc3c2)[C@@H]1O [Compound 143]
% SST5 radio-ligand binding displaced at conc 0.25 (3P library): − (% SST5 radio-ligand binding displaced at cone (μM) −<40%)
% SST5 radio-ligand binding displaced at conc 1.0 (3P library): − (% SST5 radio-ligand binding displaced at cone (μM) −<40%)

NCCCC(=O)N[C@H]1[C@@H](OCc2ccc3ccccc3c2)O[C@H](COCc2ccc3ccccc3c2)[C@@H](O)[C@@H]1OCc1ccc(Cl)cc1 [Compound 135]
% SST5 radio-ligand binding displaced at conc 0.25 (3P library): − (% SST5 radio-ligand binding displaced at cone (μM) −<40%)
% SST5 radio-ligand binding displaced at conc 1.0 (3P library): ++ (% SST5 radio-ligand binding displaced at conc (μM) >60%)

COC[C@H]1O[C@H](OCc2ccc(Cl)cc2)[C@H](NC(=O)CN)[C@@H](OC)[C@@H]1O [Compound 11]
% SST5 radio-ligand binding displaced at conc 50 [1]: − (% SST5 radio-ligand binding displaced at cone (μM) −<40%)
% SST5 radio-ligand binding displaced at conc 250 [2]: − (% SST5 radio-ligand binding displaced at cone (μM) −<40%)
% SST5 radio-ligand binding displaced at conc 500 [3]: − (% SST5 radio-ligand binding displaced at cone (μM) −<40%)

COC1C(O)C(COCc2cccc(O)c2)OC(OCc2ccc3ccccc3c2)C1NC(=O)CCCN (mixture of isomers) [Compound 125]
% SST5 radio-ligand binding displaced at conc 0.5 (3P library): − (% SST5 radio-ligand binding displaced at cone (μM) −<40%)
% SST5 radio-ligand binding displaced at conc 10 (3P library): + (% SST5 radio-ligand binding displaced at cone (μM) 60>+>40%)

COC[C@H]1O[C@H](OCc2ccc3ccccc3c2)[C@H](NC(=O)C2CNC2)[C@@H](OCc2ccc3ccccc3c2)[C@@H]1O [Compound 101]
% SST5 radio-ligand binding displaced at conc 0.25 (3P library): − (% SST5 radio-ligand binding displaced at cone (μM) −<40%)
% SST5 radio-ligand binding displaced at conc 1.0 (3P library): + (% SST5 radio-ligand binding displaced at cone (μM) 60>+>40%)

COC[C@H]1O[C@@H](SC)[C@H](NC(=O)CN)[C@@H](OCc2ccc(Cl)cc2)[C@@H]1O [Compound 9]
% SST5 radio-ligand binding displaced at conc 50 [1]: − (% SST5 radio-ligand binding displaced at cone (μM) −<40%)
% SST5 radio-ligand binding displaced at conc 250 [2]: − (% SST5 radio-ligand binding displaced at cone (μM) −<40%)
% SST5 radio-ligand binding displaced at conc 500 [3]: − (% SST5 radio-ligand binding displaced at cone (μM) −<40%)

COC[C@H]1OC(OCc2ccc3ccccc3c2)[C@H](NC(=O)CCN)[C@@H](OCc2ccc3ccccc3c2)[C@@H]1O (single isomer, unassigned) [Compound 92]
% SST5 radio-ligand binding displaced at conc 0.25 (3P library): − (% SST5 radio-ligand binding displaced at cone (μM) −<40%)
% SST5 radio-ligand binding displaced at conc 1.0 (3P library): + (% SST5 radio-ligand binding displaced at cone (μM) 60>+>40%)

COC[C@H]1OC(OCc2ccc(Cl)cc2)[C@H](NC(=O)CN)[C@@H](OCc2ccc(Cl)cc2)[C@@H]1O (single isomer, unassigned) [Compound 171]
% SST5 radio-ligand binding displaced at conc 0.25 (3P library): − (% SST5 radio-ligand binding displaced at cone (μM) −<40%)
% SST5 radio-ligand binding displaced at conc 1.0 (3P library): − (% SST5 radio-ligand binding displaced at cone (μM) −<40%)

COC[C@H]1O[C@@H](SC)[C@H](NC(=O)CCN)[C@@H](OCc2ccc(Cl)cc2)[C@@H]1O [Compound 17]
% SST5 radio-ligand binding displaced at conc 50 [1]: − (% SST5 radio-ligand binding displaced at cone (μM) −<40%)
% SST5 radio-ligand binding displaced at conc 250 [2]: − (% SST5 radio-ligand binding displaced at cone (μM) −<40%)
% SST5 radio-ligand binding displaced at conc 500 [3]: − (% SST5 radio-ligand binding displaced at cone (μM) −<40%)

COCC1OC(OCc2ccc(Cl)cc2)C(NC(=O)CN)C(OCc2ccccc2)C1O (mixture of isomers) [Compound 160]
% SST5 radio-ligand binding displaced at conc 0.001 (conc 0.001 μM, 3P library): − (% SST5 radio-ligand binding displaced at cone (μM) −<40%)
% SST5 radio-ligand binding displaced at conc 0.10 (conc 0.10 μM, 3P library): − (% SST5 radio-ligand binding displaced at cone (μM) −<40%)
% SST5 radio-ligand binding displaced at conc 0.5 (3P library): − (% SST5 radio-ligand binding displaced at cone (μM) −<40%)
% SST5 radio-ligand binding displaced at conc 1.0 (3P library): − (% SST5 radio-ligand binding displaced at cone (μM) −<40%)
% SST5 radio-ligand binding displaced at conc 10 (3P library): − (% SST5 radio-ligand binding displaced at cone (μM) −<40%)

COCC1OC(OCc2ccc3ccccc3c2)C(NC(=O)CCCN)C(OCc2ccc(Cl)cc2)C1O (mixture of isomers) [Compound 133]
% SST5 radio-ligand binding displaced at conc 10 (3P library): ++ (% SST5 radio-ligand binding displaced at conc (μM) >60%)

— patent US8426345B2, “Method of drug design” (Alchemia Limited, priority 2005, dated 2013)
